Measurements: patent US9274101B2 (BIOLOG, Inc., priority 2001, dated 2016)

Columns and labels:
Assay type in all cases: cell-based, human
HepG2 cells = HepG2 cells on flat bottom plastic wells, energy sources at a range of concentrations; conditions: for activity at 30 µM / activity at 100 µM / activity at 330 µM / activity at 1000 µM / activity at 3300 µM / activity at 10000 µM / activity at 15000 µM / activity at 20000 µM: Homo sapiens, HepG2, 72 h, read-out: HepG2 Cells Responses After 72 hours in Culture and a 4 hour Color Development Period
Procedure, shortened: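 HepG2 cells plated overnight at 4×10^4 cells/cm^2 in glucose-, glutamine- and pyruvate-free DME with 10% HI FBS, then exposed to each energy source at 0.033 to 20 mM final for 48 to 72 h at 37° C, 5% CO2. MTS/PMS colour read at 490 nm (reference 650 nm) after 4-24 h; cell-free plate OD subtracted, data normalised to % negative control (water, no energy source).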

[1] = test system: Undifferentiated HL-60 cells; experiment: Energy use by undifferentiated HL-60 cells; conditions: for activity at 30 µM / activity at 100 µM / activity at 330 µM / activity at 1000 µM / activity at 3300 µM / activity at 10000 µM / activity at 15000 µM / activity at 20000 µM: Homo sapiens, HL-60, 24 h, read-out: Energy Use by Undifferentiated HL-60 Cells
HL-60 cells [2] = experiment: Effect of 10 mM citric acid on HL-60 energy utilization; conditions: negative control without energy sources and without citric acid
HL-60 cells [3] = experiment: Effect of 1 mM chloramphenicol on HL-60 energy utilization; conditions: negative control without chloramphenicol
Protocol: In this Example, methods for testing antimicrobial-induced modulation in growth of a cell are described. The antimicrobial selected for this Example is chloramphenicol. However, this application is not intended to be limited to the use of chloramphenicol, translation inhibitors or even antibiotics. HL-60 cells were cultured as described in Example 27.
After washing, HL-60 cells were resuspended in DME-R. An aliquot of the cell suspension was counted by trypan blue exclusion and the cell density was adjusted to 6.67×10^5[…]. Fifty μL of DME-R containing 3 mM chloramphenicol were added to each well of the appropriate number of half area, 96-well plates, followed by 25 μL of the appropriate dilution of each test energy source. Stocks of 133 mM of each test chemical were prepared in tissue culture grade water, sterile filtered, and dilutions were prepared in a master plate so that, upon dilution in a total volume of 150 μL, the final concentrations would be 0.033 to 20 mM. Negative control wells received 25 μL of tissue culture grade water. The cells were plated at a volume of 75 μL/well, giving a final cell density of 5×10^4/well. For each plate containing energy sources and cells, a second, control plate containing only energy sources was prepared. Plates were incubated at 5% CO2, 90-100% humidity, and 37° C. for 24 hours prior to addition of the MTS/MPMS colorimetric reagent (7.5 μL/well). The color formed in each well 24 hours after addition of the colorimetric reagent, was measured with a plate reader at 490 nm with a reference wavelength of 650 nm. OD values from the control plate were subtracted from the OD values obtained with cells prior to normalizing the data to % negative control.
Data shown in Table 25 are expressed as percent negative control without chloramphenicol. […] Chloramphenicol clearly has a different effect on the cells than citrate shown in Example 33.

[4] = energy source 0.03 mM with 10 mM citric acid
[5] = energy source 0.10 mM with 10 mM citric acid
[6] = energy source 0.33 mM with 10 mM citric acid
[7] = energy source 1.00 mM with 10 mM citric acid
[8] = energy source 3.3 mM with 10 mM citric acid
[9] = energy source 10 mM with 10 mM citric acid
[10] = energy source 15 mM with 10 mM citric acid
[11] = energy source 20 mM with 10 mM citric acid
[12] = energy source 0.03 mM with 1 mM chloramphenicol
[13] = energy source 0.10 mM with 1 mM chloramphenicol
[14] = energy source 0.33 mM with 1 mM chloramphenicol
[15] = energy source 1.00 mM with 1 mM chloramphenicol
[16] = energy source 3.3 mM with 1 mM chloramphenicol
[17] = energy source 10 mM with 1 mM chloramphenicol
[18] = energy source 15 mM with 1 mM chloramphenicol
[19] = energy source 20 mM with 1 mM chloramphenicol

Compound | activity at 30 µM (HepG2 cells; Conc. 0.03 mM) | activity at 100 µM (HepG2 cells; Conc. 0.10 mM) | activity at 330 µM (HepG2 cells; Conc. 0.33 mM) | activity at 1000 µM (HepG2 cells; Conc. 1.00 mM) | Effect of 10 mM Citric Acid on HL-60 Energy Utilization (HL-60 cells [2]; [4]) | Effect of 10 mM Citric Acid on HL-60 Energy Utilization (HL-60 cells [2]; [5]) | Effect of 10 mM Citric Acid on HL-60 Energy Utilization (HL-60 cells [2]; [6]) | Effect of 10 mM Citric Acid on HL-60 Energy Utilization (HL-60 cells [2]; [7]) | Effect of 10 mM Citric Acid on HL-60 Energy Utilization (HL-60 cells [2]; [8]) | Effect of 10 mM Citric Acid on HL-60 Energy Utilization (HL-60 cells [2]; [9]) | Effect of 10 mM Citric Acid on HL-60 Energy Utilization (HL-60 cells [2]; [10]) | Effect of 10 mM Citric Acid on HL-60 Energy Utilization (HL-60 cells [2]; [11]) | Effect of 1 mM chloramphenicol on HL-60 Energy Utilization (HL-60 cells [3]; [12]) | Effect of 1 mM chloramphenicol on HL-60 Energy Utilization (HL-60 cells [3]; [13]) | Effect of 1 mM chloramphenicol on HL-60 Energy Utilization (HL-60 cells [3]; [14]) | Effect of 1 mM chloramphenicol on HL-60 Energy Utilization (HL-60 cells [3]; [15]) | Effect of 1 mM chloramphenicol on HL-60 Energy Utilization (HL-60 cells [3]; [16]) | Effect of 1 mM chloramphenicol on HL-60 Energy Utilization (HL-60 cells [3]; [17]) | Effect of 1 mM chloramphenicol on HL-60 Energy Utilization (HL-60 cells [3]; [18]) | Effect of 1 mM chloramphenicol on HL-60 Energy Utilization (HL-60 cells [3]; [19]) | other results
CC(C)[C@H](N)C(=O)O [L-valine] | 119% | 149% | 170% | 125% | 9.3 % of negative control | 13.4 % of negative control | 12.4 % of negative control | 12.7 % of negative control | 20.8 % of negative control | 32.2 % of negative control | 42.3 % of negative control | 64.5 % of negative control | 6.6 % of negative control | 4.3 % of negative control | 4.0 % of negative control | 3.2 % of negative control | 4.3 % of negative control | 5.5 % of negative control | 2.6 % of negative control | 7.5 % of negative control | activity at 3300 µM (HepG2 cells; Conc. 3.3 mM): 176%; activity at 10000 µM (HepG2 cells; Conc. 10 mM): 132%; activity at 15000 µM (HepG2 cells; Conc. 15 mM): 108%; activity at 20000 µM (HepG2 cells; Conc. 20 mM): 87.6%; activity at 30 µM ([1]; Conc. 0.03 mM): 89.6%; activity at 100 µM ([1]; Conc. 0.10 mM): 93.2%; activity at 330 µM ([1]; Conc. 0.33 mM): 83.8%; activity at 1000 µM ([1]; Conc. 1.00 mM): 78.6%; activity at 3300 µM ([1]; Conc. 3.3 mM): 86.4%; activity at 10000 µM ([1]; Conc. 10 mM): 89%; activity at 15000 µM ([1]; Conc. 15 mM): 97.7%; activity at 20000 µM ([1]; Conc. 20 mM): 104%
O=C(O)[C@@H]1C[C@@H](O)CN1 [hydroxy L-proline] | – | – | – | – | 7.6 % of negative control | 17.7 % of negative control | 25.0 % of negative control | 37.5 % of negative control | 49.0 % of negative control | 85.0 % of negative control | 87.4 % of negative control | 68.8 % of negative control | 1.2 % of negative control | −5.0 % of negative control | 2.6 % of negative control | −1.2 % of negative control | 4.4 % of negative control | 1.7 % of negative control | 15.7 % of negative control | 0.6 % of negative control | HepG2 Cells Responses After 72 hours in Culture and a 4 hour Color Development Period (HepG2 cells; Conc. 0.03 mM): 97.0 % of negative control; HepG2 Cells Responses After 72 hours in Culture and a 4 hour Color Development Period (HepG2 cells; Conc. 0.10 mM): 139.9 % of negative control; HepG2 Cells Responses After 72 hours in Culture and a 4 hour Color Development Period (HepG2 cells; Conc. 0.33 mM): 162.2 % of negative control; HepG2 Cells Responses After 72 hours in Culture and a 4 hour Color Development Period (HepG2 cells; Conc. 1.00 mM): 140.5 % of negative control; HepG2 Cells Responses After 72 hours in Culture and a 4 hour Color Development Period (HepG2 cells; Conc. 3.3 mM): 126.8 % of negative control; HepG2 Cells Responses After 72 hours in Culture and a 4 hour Color Development Period (HepG2 cells; Conc. 10 mM): 123.1 % of negative control; HepG2 Cells Responses After 72 hours in Culture and a 4 hour Color Development Period (HepG2 cells; Conc. 15 mM): 101.3 % of negative control; HepG2 Cells Responses After 72 hours in Culture and a 4 hour Color Development Period (HepG2 cells; Conc. 20 mM): 62.8 % of negative control; Energy Use by Undifferentiated HL-60 Cells ([1]; Conc. 0.03 mM): 109.9 % of negative control; Energy Use by Undifferentiated HL-60 Cells ([1]; Conc. 0.10 mM): 112.9 % of negative control; Energy Use by Undifferentiated HL-60 Cells ([1]; Conc. 0.33 mM): 99.6 % of negative control; Energy Use by Undifferentiated HL-60 Cells ([1]; Conc. 1.00 mM): 104.7 % of negative control; Energy Use by Undifferentiated HL-60 Cells ([1]; Conc. 3.3 mM): 114.7 % of negative control; Energy Use by Undifferentiated HL-60 Cells ([1]; Conc. 10 mM): 117.8 % of negative control; Energy Use by Undifferentiated HL-60 Cells ([1]; Conc. 15 mM): 124.2 % of negative control; Energy Use by Undifferentiated HL-60 Cells ([1]; Conc. 20 mM): 101.8 % of negative control
COC(=O)CCC(=O)O [mono methyl succinate] | 144% | 161% | 179% | 180% | 4.9 % of negative control | 13.0 % of negative control | 16.9 % of negative control | 51.7 % of negative control | 163.6 % of negative control | 210.0 % of negative control | 192.3 % of negative control | 173.9 % of negative control | 10.4 % of negative control | −2.1 % of negative control | 2.6 % of negative control | 1.8 % of negative control | 43.3 % of negative control | 78.1 % of negative control | 47.8 % of negative control | 16.2 % of negative control | activity at 3300 µM (HepG2 cells; Conc. 3.3 mM): 200%; activity at 10000 µM (HepG2 cells; Conc. 10 mM): 224%; activity at 15000 µM (HepG2 cells; Conc. 15 mM): 357%; activity at 20000 µM (HepG2 cells; Conc. 20 mM): 238%; activity at 30 µM ([1]; Conc. 0.03 mM): 104%; activity at 100 µM ([1]; Conc. 0.10 mM): 99.9%; activity at 330 µM ([1]; Conc. 0.33 mM): 112%; activity at 1000 µM ([1]; Conc. 1.00 mM): 141%; activity at 3300 µM ([1]; Conc. 3.3 mM): 182%; activity at 10000 µM ([1]; Conc. 10 mM): 223%; activity at 15000 µM ([1]; Conc. 15 mM): 261%; activity at 20000 µM ([1]; Conc. 20 mM): 199%
